# Source: US9655887B2, “Pharmaceutical composition and the use thereof, and application regime of said pharmaceutical composition for on-demand contraception” (BAYER PHARMA AKTIENGESELLSCHAFT, priority 2013, dated 2017)
# Biological target: EP2 subtype of the human PGE2 receptor (hEP2 receptor) (Homo sapiens, UniProt P43116)
# Assay: cAMP antagonism test, human prostaglandin E2 (subtype EP2) receptor signal
# Assay type: cell-based
# Description: 1. Detection of Antagonism to the Human Prostaglandin E2 (Subtype EP2) Receptor Signal
# The binding of PGE2 to the EP2 subtype of the human PGE2 receptor induces the activation of membrane-located adenylate cyclases and leads to the formation of cAMP. In the presence of the phosphodiesterase inhibitor IBMX, the cAMP accumulated owing to this stimulation and released by cell lysis is used in a competitive detection method. In this test, the cAMP present in the lysate competes with a fluorescence-labelled cAMP (cAMP-d2) for binding to an Eu cryptate-labelled anti-cAMP antibody.
# In the absence of cellular cAMP, a maximal signal is produced, which is attributable to the binding of this cAMP-d2 molecule to the antibody. After excitation of the […] at 337 nm, there is a fluorescence resonance energy transfer (FRET) to the Eu cryptate molecules of the anti-cAMP antibody (labelled therewith), followed by a long-lasting emission signal at 665 nm (and at […]). Both signals are measured in a suitable measurement instrument with a time delay, i.e. after decay of the background fluorescence. Any increase in the low FRET signal caused by prostaglandin E2 administration (measured as well ratio change=emission665nm/emission620nm*10000) indicates the action of antagonists.
# 1.2.1. Test for Antagonism (Data Per Well of a 384-Well Plate):
# To a test plate with the substance solutions already added (0.05 μl; 100% DMSO, concentration range from 0.8 nM-16.5 nM) were added 4 μl of a cAMP-d2/cell suspension (625000 cells/ml). After a 20-minute preincubation at room temperature (RT), 2 μl of a 3×PGE2 solution (1.5 nM, in PBS-IBMX) were added and incubated in the presence of the agonist for a further 60 mins at RT (volume: […]). Next the reaction was stopped by addition of 2 μl of lysis buffer and incubated for a further 20 mins at RT before the actual measurement (volume: ˜8 μl).
# Chain of EP2 subtype of the human PGE2 receptor (hEP2 receptor) (P43116 whole entry): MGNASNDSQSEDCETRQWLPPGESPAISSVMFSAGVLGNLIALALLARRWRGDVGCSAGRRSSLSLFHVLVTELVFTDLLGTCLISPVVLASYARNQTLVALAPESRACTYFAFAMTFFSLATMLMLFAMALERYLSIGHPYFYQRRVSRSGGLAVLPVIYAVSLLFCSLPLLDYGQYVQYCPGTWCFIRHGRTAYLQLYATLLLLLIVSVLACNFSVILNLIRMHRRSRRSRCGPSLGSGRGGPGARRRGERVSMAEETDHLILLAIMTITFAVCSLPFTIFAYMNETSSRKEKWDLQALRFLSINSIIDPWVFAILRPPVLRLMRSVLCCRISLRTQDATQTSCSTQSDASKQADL
row,SMILES,IC50
1,"COCCNC(=O)c1ccc2nn(CC3CCN(C(=O)c4ccc(OC(F)F)cc4F)CC3)cc2c1C [Example E38, 2-({1-[4-(difluoromethoxy)-2-fluorobenzoyl]piperidin-4-yl}methyl)-N-(2-methoxy-ethyl)-4-methyl-2H-indazole-5-carboxamide]",> 50 nM
2,"COCCNC(=O)c1ccc2nn(CC3CCN(C(=O)c4ccc(N5CCCC5)cc4F)CC3)cc2c1C [Example E39, 2-({1-[2-fluoro-4-(pyrrolidin-1-yl)benzoyl]piperidin-4-yl}methyl)-N-(2-methoxyethyl)-4-methyl-2H-indazole-5-carboxamide]",> 50 nM
3,"COCCNC(=O)c1ccc2nn(CC3CCN(C(=O)c4ccc(-c5ccc(OC)cc5)cc4F)CC3)cc2c1C [Example E41, 2-({1-[(3-fluoro-4′-methoxybiphenyl-4-yl)carbonyl]piperidin-4-yl}methyl)-N-(2-methoxyethyl)-4-methyl-2H-indazole-5-carboxamide]",> 50 nM
4,"COCCNC(=O)c1ccc2nn(CC3CCN(C(=O)c4ccc(-c5ccccc5OC(F)(F)F)cc4F)CC3)cc2c1C [Example E44, 2-[(1-{[3-fluoro-2′-(trifluoromethoxy)biphenyl-4-yl]carbonyl}piperidin-4-yl)methyl]-N-(2-methoxyethyl)-4-methyl-2H-indazole-5-carboxamide]",> 50 nM
5,"COCCNC(=O)c1ccc2nn(CC3CCN(C(=O)c4ccc(-c5ccccc5F)cc4)CC3)cc2c1C [Example E45, 2-({1-[(2′-fluorobiphenyl-4-yl)carbonyl]piperidin-4-yl}methyl)-N-(2-methoxyethyl)-4-methyl-2H-indazole-5-carboxamide]",> 50 nM
6,"COCCNC(=O)c1ccc2nn(CC3CCN(C(=O)c4ccc(-c5ccc(F)cc5F)cc4)CC3)cc2c1C [Example E46, 2-({1-[(2′,4′-difluorobiphenyl-4-yl)carbonyl]piperidin-4-yl}methyl)-N-(2-methoxy-ethyl)-4-methyl-2H-indazole-5-carboxamide]",> 50 nM
7,"COCCNC(=O)c1ccc2nn(CC3CCN(C(=O)c4ccc(-c5ccccc5)c(F)c4)CC3)cc2c1C [Example E47, 2-({1-[(2-fluorobiphenyl-4-yl)carbonyl]piperidin-4-yl}methyl)-N-(2-methoxyethyl)-4-methyl-2H-indazole-5-carboxamide]",> 50 nM
8,"COCCNC(=O)c1ccc2nn(CC3CCN(C(=O)c4ccc(Br)cc4)CC3)cc2c1C [Example E52, 2-{[1-(4-bromobenzoyl)piperidin-4-yl]methyl}-N-(2-methoxyethyl)-4-methyl-2H-indazole-5-carboxamide]",> 50 nM
9,"Cc1ccc(C(=O)N2CCC(Cn3cc4c(C)c(C(=O)NCCOCC5CC5)ccc4n3)CC2)cc1 [Example E60, N-[2-(cyclopropylmethoxy)ethyl]-4-methyl-2-{[1-(4-methylbenzoyl)piperidin-4-yl]-methyl}-2H-indazole-5-carboxamide]",> 50 nM
10,"Cc1c(C(=O)NCCOCC2CC2)ccc2nn(CC3CCN(C(=O)c4ccc(C(F)(F)F)cc4)CC3)cc12 [Example E62, N-[2-(cyclopropylmethoxy)ethyl]-4-methyl-2-({1-[4-(trifluoromethyl)benzoyl]piperidin-4-yl}methyl)-2H-indazole-5-carboxamide]",> 50 nM
11,"Cc1c(C(=O)NCCOCC2CC2)ccc2nn(CC3CCN(C(=O)c4ccc(-c5ccc(F)cc5)cc4)CC3)cc12 [Example E63, N-[2-(cyclopropylmethoxy)ethyl]-2-({1-[(4′-fluorobiphenyl-4-yl)carbonyl]piperidin-4-yl}methyl)-4-methyl-2H-indazole-5-carboxamide]",> 50 nM
12,"Cc1c(C(=O)NCCOCC2CC2)ccc2nn(CC3CCN(C(=O)c4ccc(C5CC5)cc4)CC3)cc12 [Example E64, 2-{[1-(4-cyclopropylbenzoyl)piperidin-4-yl]methyl}-N-[2-(cyclopropylmethoxy)ethyl]-4-methyl-2H-indazole-5-carboxamide]",> 50 nM
13,"Cc1c(C(=O)NCCOCC(F)(F)F)ccc2nn(CC3CCN(C(=O)c4ccc(C(F)(F)F)cc4)CC3)cc12 [Example E68, 4-methyl-N-[2-(2,2,2-trifluoroethoxy)ethyl]-2-({1-[4-(trifluoromethyl)benzoyl]-piperidin-4-yl}methyl)-2H-indazole-5-carboxamide]",> 50 nM
14,"Cc1c(C(=O)NCCOCC(F)(F)F)ccc2nn(CC3CCN(C(=O)c4ccc(-c5ccc(F)cc5)cc4)CC3)cc12 [Example E69, 2-({1-[(4′-fluorobiphenyl-4-yl)carbonyl]piperidin-4-yl}methyl)-4-methyl-N-[2-(2,2,2-trifluoroethoxy)ethyl]-2H-indazole-5-carboxamide]",> 50 nM
15,"Cc1c(C(=O)NCCOCC(F)(F)F)ccc2nn(CC3CCN(C(=O)c4ccc(C5CC5)cc4)CC3)cc12 [Example E70, 2-{[1-(4-cyclopropylbenzoyl)piperidin-4-yl]methyl}-4-methyl-N-[2-(2,2,2-trifluoro-ethoxy)ethyl]-2H-indazole-5-carboxamide]",> 50 nM

# Other lines, results leading:
row,IC50,SMILES
1,> 50 nM,"COCCNC(=O)c1ccc2nn(CC3CCN(C(=O)c4ccc(-n5cccn5)cc4)CC3)cc2c1C [Example E36, N-(2-methoxyethyl)-4-methyl-2-({1-[4-(1H-pyrazol-1-yl)benzoyl]piperidin-4-yl}-methyl)-2H-indazole-5-carboxamide]"
2,> 50 nM,"COCCNC(=O)c1ccc2nn(CC3CCN(C(=O)c4ccc(-c5ccc(F)cc5)cc4F)CC3)cc2c1C [Example E40, 2-({1-[(3,4′-difluorobiphenyl-4-yl)carbonyl]piperidin-4-yl}methyl)-N-(2-methoxyethyl)-4-methyl-2H-indazole-5-carboxamide]"
3,> 50 nM,"COCCNC(=O)c1ccc2nn(CC3CCN(C(=O)c4ccc(-c5ccccc5C)cc4)CC3)cc2c1C [Example E48, N-(2-methoxyethyl)-4-methyl-2-({1-[(2′-methylbiphenyl-4-yl)carbonyl]piperidin-4-yl}-methyl)-2H-indazole-5-carboxamide]"
4,> 50 nM,"COCCNC(=O)c1ccc2nn(CC3CCN(C(=O)c4ccc(N5CCOCC5)cc4F)CC3)cc2c1C [Example E51, 2-({1-[2-fluoro-4-[morpholin-4-yl)benzoyl]piperidin-4-yl}methyl)-N-(2-methoxyethyl)-4-methyl-2H-indazole-5-carboxamide]"
5,> 50 nM,"COCCNC(=O)c1ccc2nn(CC3CCN(C(=O)c4ccc(OC(F)(F)F)cc4)CC3)cc2c1C [Example E53, N-(2-methoxyethyl)-4-methyl-2-({1-[4-(trifluoromethoxy)benzoyl]piperidin-4-yl}-methyl)-2H-indazole-5-carboxamide]"
6,> 50 nM,"COCCNC(=O)c1ccc2nn(CC3CCN(C(=O)c4ccc(Cl)cc4)CC3)cc2c1C [Example E54, 2-{[1-(4-chlorobenzoyl)piperidin-4-yl]methyl}-N-(2-methoxyethyl)-4-methyl-2H-indazole-5-carboxamide]"
7,> 50 nM,"COCCNC(=O)c1ccc2nn(CC3CCN(C(=O)c4ccc(SC(F)(F)F)cc4)CC3)cc2c1C [Example E55, N-(2-methoxyethyl)-4-methyl-2-[(1-{4-[(trifluoromethyl)sulphanyl]benzoyl}piperidin-4-yl)methyl]-2H-indazole-5-carboxamide]"
8,> 50 nM,"Cc1c(C(=O)NCCOCC2CC2)ccc2nn(CC3CCN(C(=O)c4ccc(Cl)cc4)CC3)cc12 [Example E59, 2-{[1-(4-chlorobenzoyl)piperidin-4-yl]methyl}-N-[2-(cyclopropylmethoxy)ethyl]-4-methyl-2H-indazole-5-carboxamide]"
9,> 50 nM,"Cc1c(C(=O)NCCOCC2CC2)ccc2nn(CC3CCN(C(=O)c4ccc(Oc5ccc(F)cc5)cc4)CC3)cc12 [Example E61, N-[2-(cyclopropylmethoxy)ethyl]-2-({1-[4-(4-fluorophenoxy)benzoyl]piperidin-4-yl}-methyl)-4-methyl-2H-indazole-5-carboxamide]"
10,> 50 nM,"Cc1c(C(=O)NCCOCC(F)(F)F)ccc2nn(CC3CCN(C(=O)c4ccc(Cl)cc4)CC3)cc12 [Example E65, 2-{[1-(4-chlorobenzoyl)piperidin-4-yl]methyl}-4-methyl-N-[2-(2,2,2-trifluoroethoxy)-ethyl]-2H-indazole-5-carboxamide]"
11,> 50 nM,"Cc1ccc(C(=O)N2CCC(Cn3cc4c(C)c(C(=O)NCCOCC(F)(F)F)ccc4n3)CC2)cc1 [Example E66, 4-methyl-2-{[1-(4-methylbenzoyl)piperidin-4-yl]methyl}-N-[2-(2,2,2-trifluoroethoxy)-ethyl]-2H-indazole-5-carboxamide]"
12,> 50 nM,Cc1c(C(=O)NCCOCC(F)(F)F)ccc2nn(CC3CCN(C(=O)c4ccc(Oc5ccc(F)cc5)cc4)CC3)cc12 [Example E67]
13,> 50 nM,"Cc1c(C(=O)NCCOC(C)C)ccc2nn(CC3CCN(C(=O)c4ccc(Cl)cc4)CC3)cc12 [Example E71, 2-{[1-(4-chlorobenzoyl)piperidin-4-yl]methyl}-N-(2-isopropoxyethyl)-4-methyl-2H-indazole-5-carboxamide]"
